{
  "source": "patent US20040266749A1",
  "about": "“Methods for cystic fibrosis disease assessment and methods for treating anaerobic P. aeruginosa biofilms in cystic fibrosis disease” (priority 2002, published 2004)",
  "tested_on": "P. aeruginosa rhlR mutant anaerobic biofilm",
  "experiment": "Anaerobic biofilm protection of rhlR mutant bacteria by carboxy-PTIO (confocal LIVE/DEAD viability)",
  "format": "cell-based, Pseudomonas aeruginosa",
  "conditions": "5 mM carboxy-PTIO",
  "experimental": "(b) Confocal examination of biofilms. For biofilm architecture examination, circular coverslips are glued to the bottom of 35×10 mm polystyrene tissue culture dishes with small holes in the base (Falcon). The plates are sterilized overnight by UV irradiation. Three ml of aerobic L-broth, aerobic LBN or anaerobic LBN is inoculated with ˜10^7 CFU of overnight L-broth grown culture. After 24 hr at 37° C., biofilms are washed with saline and stained with 0.5 ml of a LIVE/DEAD BacLight bacterial viability stain (Molecular Probes, Inc., Eugene, Oreg.). Images are acquired on a Zeiss LSM 510 laser scanning confocal unit attached to an Axiovert microscope using a 63×1.4 NA oil immersion objective. For two color images, samples are scanned sequentially at 488 nm and 546 nm. Syto 9 (green fluorescence) is detected through a 505-530 nm bandpass filter and propidium iodine (red fluorescence) is detected through a 560 nm longpass filter and presented in two channels of a 512×512 pixel, 8-bit image.\n(a) Anaerobic biofilm protection by 2-(4-Carboxyphenyl)-4,4,5,5-tetramethylimidazoline-1-oxyl-3-oxide (carboxy-PTIO). Biofilms of rhlR mutant bacteria are grown anaerobically in the presence vs. absence of 5 mM carboxy-PTIO (Molecular Probes, Eugene, Oreg.), an NO scavenger. […]",
  "data": [
    {"smiles": "CC1(C)N([O])C(c2ccc(C(=O)O)cc2)=[N+]([O-])C1(C)C", "note": "[carboxy-PTIO, 2-(4-Carboxyphenyl)-4,4,5,5-tetramethylimidazoline-1-oxyl-3-oxide]", "values": [
      {"measurement": "Biofilm zone in which protection is primarily observed (top of the biofilm)", "setting": "anaerobic rhlR mutant biofilm, sagittal sectioning, FIG. 3B line 2 vs. 1", "result": "10-15 μm"},
      {"measurement": "Protection of anaerobic rhlR mutant biofilm bacteria from cell death (viability)", "setting": "rhlR mutant grown anaerobically as biofilm, FIG. 3A panels 2 vs. 1", "result": "protected the rhlR mutant"}
    ]}
  ]
}
